Common to all, as to assay type: cell-based
For one data set, the system named is E. coli ATCC 25922. As to conditions: broth microdilution, MHB, ~5 × 10^5 CFU/mL, 18 h, 37 °C, OD 620 nm, 100 to 0.2 µM. For orientation: Broth dilution looks for growth in wells or tubes with falling amounts of substance.
Data set [1] deals with human red blood cells (hRBC). Nature of the data set: Haemolytic activity (MHC). As to conditions: 5% v/v hRBC in 1X PBS, 200–0.39 µM, 1 h, 37 °C, absorbance 560 nm. As to the method: A haemolytic activity assay was used for determining whether peptides acted on hRBC membrane by calculating the minimum haemolytic concentration (MHC). Briefly, 100 µL serial dilutions of peptides were incubated in a 96-well plate with an equal volume of a fresh hRBC suspension at 5% v/v in 1X PBS (200–0.39 µM final peptide concentrations). The samples were spun at 1000× g for 5 min after having been incubated at 37 °C for 1 h and a Multiskan spectrometer (Thermo Fisher) was used for measuring 100 µL supernatant absorbance at 560 nm. Treated hRBC absorbance 0.1% Triton X-100 or 100% haemolysis was used as positive control.

Another data set concerns P. aeruginosa 27853. Nature of the data set: MIC by broth microdilution. As to conditions: MHB, 18 h, 37 °C.
Data set [2] concerns E. coli clinical isolate 44. Description: Resistance profile of clinical isolate (VITEK-2). As to conditions: Escherichia coli, isolate from blood. The source says:
(§1) Approximately 50 bacterial samples were then collected from E. coli-infected patients for evaluating activity of the peptides against some clinical isolates. These samples were identified and biochemically and metabolically characterised using the VITEK-2 equipment. Isolates were profiled regarding their resistance or susceptibility to a panel of conventionally used antibiotics.

Data set [3] has as its system E. coli clinical isolate 40. Nature of the data set: Resistance profile of clinical isolate (VITEK-2). As to conditions: Escherichia coli, isolate from blood.
Text: as §1

The subject of data set [4] is E. coli clinical isolate 4. Description: Resistance profile of clinical isolate (VITEK-2). Particulars: Escherichia coli, isolate from urine.
Text: as §1

≈ marks a conversion by molar mass, not a printed value. No end group written: not given here.

In general, MIC refers to the lowest concentration found to suppress growth. Higher therefore signals a less susceptible organism.

Experimental for P. aeruginosa 27853: The standard broth microdilution method was used for determining the peptides’ MIC [41]. […] Bacteria in Müller–Hinton broth (MHB) were used as negative control. […] The MIC was determined as the lowest peptide concentration at which bacterial growth was not detected.

Consider KMKKALQY-NH2 [Peptide 35409-16], for which the “MIC E. coli 25922” value against E. coli ATCC 25922 is on record as >100 µM. The “MHC (minimum haemolytic concentration)” value in data set [1] is given as >200 µM. The “MIC P. aeruginosa 27853” value in the data set with P. aeruginosa 27853 is given as >100 µM.

Regarding `CC(C)(O/N=C(\C(=O)N[C@@H]1C(=O)N2C(C(=O)[O-])=C(C[n+]3ccccc3)CS[C@H]12)c1csc(N)n1)C(=O)O` [Ceftazidime], the MIC in data set [2] was ≥ 64 µg/mL; in data set [3], ≤ 1 µg/mL; in data set [4] it was ≤ 1 µg/mL.

`CC(=O)OCC1=C(C(=O)O)N2C(=O)[C@@H](NC(=O)Cc3cccs3)[C@H]2SC1` [Cephalothin]: the MIC was ≥ 64 µg/mL in data set [2], 16 µg/mL (≈ 40.4 µM) in data set [3] and 4 µg/mL (≈ 10.1 µM) in data set [4].

Regarding RYRRKKKMKKA-NH2 [Peptide 35409-10], in the data set with E. coli ATCC 25922, the “MIC E. coli 25922” value was >100 µM. The “MHC (minimum haemolytic concentration)” value in data set [1] is reported as >200 µM. The “MIC P. aeruginosa 27853” value against P. aeruginosa 27853 is >100 µM.

Take `CO/N=C(\C(=O)N[C@@H]1C(=O)N2C(C(=O)[O-])=C(C[N+]3(C)CCCC3)CS[C@H]12)c1csc(N)n1` [Cefepime]: the MIC in data set [4] is ≤ 1 µg/mL.

As for `CCn1cc(C(=O)O)c(=O)c2ccc(C)nc21` [Nalidixic acid], the MIC was ≥ 32 µg/mL in data set [2], ≤ 2 µg/mL in data set [3] and ≥ 32 µg/mL in data set [4].

As for RYRRKKKMKKALQYIKL-NH2 [Peptide 35409-8], in the data set with E. coli ATCC 25922, the “MIC E. coli 25922” value is listed as >100 µM. Further, in data set [1], the “MHC (minimum haemolytic concentration)” value is >200 µM. Also, the “MIC P. aeruginosa 27853” value in the data set with P. aeruginosa 27853 is on record as >100 µM.

`CO[C@@]1(NC(=O)Cc2cccs2)C(=O)N2C(C(=O)O)=C(COC(N)=O)CS[C@@H]21` [Cefoxitin]: the MIC in data set [2], in data set [3] and in data set [4] was ≤ 4 µg/mL throughout.

For the compound RYRRKKK-NH2 [Peptide 35409-12], in the data set on E. coli ATCC 25922, the “MIC E. coli 25922” value was >100 µM. Besides, the “MHC (minimum haemolytic concentration)” value in data set [1] is >200 µM. In addition, in the data set on P. aeruginosa 27853, the “MIC P. aeruginosa 27853” value is reported as >100 µM.

For RYRRKKKMKKALQY-NH2 [Peptide 35409-9], the “MIC E. coli 25922” value with E. coli ATCC 25922 was >100 µM. The “MHC (minimum haemolytic concentration)” value in data set [1] is recorded as >200 µM. Moreover, in the data set on P. aeruginosa 27853, the “MIC P. aeruginosa 27853” value is >100 µM.

As to KKMKKALQYIKLLKE-NH2 [Peptide 35409-3], the “MIC E. coli 25922” value in the data set on E. coli ATCC 25922 is reported as >100 µM. For the same compound, the “MHC (minimum haemolytic concentration)” value in data set [1] is recorded as >200 µM. For the same compound, the “MIC P. aeruginosa 27853” value against P. aeruginosa 27853 was >100 µM.

For the compound RKKKMKKALQY-NH2 [Peptide 35409-15], the “MIC E. coli 25922” value against E. coli ATCC 25922 is given as >100 µM. In data set [1], the “MHC (minimum haemolytic concentration)” value was 200 µM. Moreover, the “MIC P. aeruginosa 27853” value against P. aeruginosa 27853 is listed as >100 µM.

`C[C@@H](O)[C@H]1C(=O)N2C(C(=O)O)=C(SCCN=CN)C[C@H]12` [Imipenem]: the MIC in data set [2], in data set [3] and in data set [4] was ≤ 1 µg/mL each time.

As for MKKALQYIKLLKE-NH2 [Peptide 35409-5], the “MIC E. coli 25922” value against E. coli ATCC 25922 is >100 µM. The “MHC (minimum haemolytic concentration)” value in data set [1] is >200 µM. Besides, the “MIC P. aeruginosa 27853” value with P. aeruginosa 27853 is >100 µM.

For the compound `O=C1CN(/N=C/c2ccc([N+](=O)[O-])o2)C(=O)N1` [Nitrofurantoin], the MIC in data set [2], in data set [3] and in data set [4] was ≤ 16 µg/mL each time.

Turning to RYRRKKKMKK-NH2 [Peptide 35409-11], in the data set with E. coli ATCC 25922, the “MIC E. coli 25922” value is reported as >100 µM. Besides, the “MHC (minimum haemolytic concentration)” value in data set [1] is listed as >200 µM. In addition, the “MIC P. aeruginosa 27853” value against P. aeruginosa 27853 is on record as >100 µM.

For YIKLLKE-NH2 [Peptide 35409-7], the “MIC E. coli 25922” value against E. coli ATCC 25922 is >100 µM. Also, the “MHC (minimum haemolytic concentration)” value in data set [1] is >200 µM. For the same compound, the “MIC P. aeruginosa 27853” value against P. aeruginosa 27853 is recorded as >100 µM.

With ALQYIKLLKE-NH2 [Peptide 35409-6], the “MIC E. coli 25922” value in the data set with E. coli ATCC 25922 is reported as >100 µM. The “MHC (minimum haemolytic concentration)” value in data set [1] is recorded as >200 µM. Further, the “MIC P. aeruginosa 27853” value against P. aeruginosa 27853 is listed as >100 µM.

Turning to KKMKKALQYIKL-NH2 [Peptide 35409-14], the “MIC E. coli 25922” value against E. coli ATCC 25922 was >100 µM. The “MHC (minimum haemolytic concentration)” value in data set [1] was 100 µM. Further, the “MIC P. aeruginosa 27853” value against P. aeruginosa 27853 was >100 µM.

The record behind these values is publication PMC7356157, “Shorter Antibacterial Peptide Having High Selectivity for E. coli Membranes and Low Potential for Inducing Resistance” (Microorganisms, 2020).
